Numbering of substitutions follows the chain as printed.
What was measured:
HpHtrA D165A = biological target: T1, HpHtrA D165A (Helicobacter pylori, UniProt G2J5T2, D165A); details: MST
T1 sequence (G2J5T2 18-475 D165A): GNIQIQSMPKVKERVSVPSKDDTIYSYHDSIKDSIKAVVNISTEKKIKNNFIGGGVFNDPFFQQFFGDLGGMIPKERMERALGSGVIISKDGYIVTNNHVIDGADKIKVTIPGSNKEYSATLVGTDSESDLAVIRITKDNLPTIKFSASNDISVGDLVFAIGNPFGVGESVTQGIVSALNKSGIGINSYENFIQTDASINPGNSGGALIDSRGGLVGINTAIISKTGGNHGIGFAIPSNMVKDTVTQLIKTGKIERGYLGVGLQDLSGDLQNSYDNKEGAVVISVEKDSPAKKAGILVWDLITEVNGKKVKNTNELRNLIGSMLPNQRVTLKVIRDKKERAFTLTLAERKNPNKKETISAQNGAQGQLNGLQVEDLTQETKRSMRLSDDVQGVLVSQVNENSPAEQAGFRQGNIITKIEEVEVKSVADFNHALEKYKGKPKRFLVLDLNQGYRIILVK
Method: (§1) Synthesis of 2-Abz-AQRVAFY(3-NO2)-NH2. The peptide was assembled manually on a 20 µmol scale.
(§2) The side-chain protecting groups were Pbf for Arg, and Trt for Gln. Fmoc deprotection was carried out with 25% piperidine in DMF/NMP (80:20, v/v) for 3 min, and 12.5% piperidine in DMF/NMP (80:20, v/v) for 12 min. The double couplings (2x45 min) were accomplished with the mixture Fmoc-AA-OH/HOBt/HBTU/DIPEA (5:5:4.8:10 equiv.). 2 -Boc-Abz-OH was coupled with the same protocol.
(§3) Afterwards, the peptidyl-resin was treated with 25% piperidine in DMF/NMP (80:20, v/v) (2x12 min) to deacylate the 3-nitro-tyrosine side chain. The peptide was simultaneously cleaved from the resin and deprotected by using the mixture TFA/H2O/TIA/EDT/TIS (90:3:1:3:3; Vtot = 1 ml) for about 3 h, precipitated from ice-cold diethyl ether, recovered by centrifugation at 4 °C for 6 min, washed four times with ice-cold diethyl ether, and dried in vacuo. The solid was dissolved in water and lyophilized.
(§4) Microscale thermophoresis .
(§5) D168A, MicroScale Thermophoresis (MST) analysis was performed using the Monolith NT.115 (NanoTemper Technologies). HpHtrA proteases were labeled with red fluorescent dye NT -650-NHS (amine reactive) according to the manufacturer’s protocol. Remaining free dye was removed by buffer exchange column chromatography and proteins were eluted in 50 mM Tris pH 7.4, 150 mM NaCl, 0.04% Tween. 5 nM of labelled HpHtrA was incubated for 15 minutes at RT with decreasing […]
(§6) Measurement was performed with premium treated capillaries (NanoTemper Technologies) and the Monolith NT.115 Microscale Thermophoresis device. Data analysis was performed with MO.Affinity Analysis v2.3 (NanoTemper Technologies) and GraphPad Prism Software (Version 8.0.2). Three independent experiments were […]

HpHtrA S166A = biological target: T2, HpHtrA S166A (Helicobacter pylori, UniProt G2J5T2, S166A); details: MST
T2 sequence (G2J5T2 18-475 S166A): T1 sequence (G2J5T2 18-475 D165A) with A148D, S149A
Method: as §1, §2, §3, §4, §5, §6

`[Zn+2]` [Zn^++, ZnCl2] gave a Response amplitude (HpHtrA D165A) of 3.6 and a Response amplitude (HpHtrA S166A) of 3.9.

Reference: PMC7324608 (Scientific Reports, 2020)
